Results as given in PMC4710522, “A Novel Triazolopyridine-Based Spleen Tyrosine Kinase Inhibitor That Arrests Joint Inflammation” (PLoS ONE, 2016).
Read-outs that look alike come from different tables or passages of the source.

Columns and labels:
PASK_h = target: T1, PASK_h (Homo sapiens, UniProt Q96RG2); test: SelectScreen kinase assay; assay type: biochemical; conditions: KM ATP
T1 construct: purchased Life Technologies (Invitrogen) SelectScreen, Z'-LYTE / Adapta
Method: (§1) Syk kinase mode of inhibition studies, including parameters described in Fig 1, were conducted on the LC3000 platform by Caliper Life Sciences (Hopkinton, MA) according to standard protocols developed by the supplier. […] Non-kinase enzyme assays and GPCR, ion channel, and transporter binding assays were run by CEREP (France). Non-GLP manual patch clamp hERG assays were run by ChanTest (Cleveland, Ohio). Vivid® Assay kits (Life Technologies) were used to measure the cytochrome P450 inhibition of the compound against CYP3A, CYP2C9, CYP2C19, CYP2D6, and CYP1A2, as described.
(§2) Kinase activity was measured using either the Z’-Lyte® or the Adapta® protocols as part of the SelectScreen™ profiling service offered at Life Technologies (Grand Island, NY). For the single point measurements (Part A), CC-509 was kept constant at 3 µM while ATP concentrations [ATP] used were at the KM for ATP (KM ATP) for that specific enyzme, at 10 or 100 µM ATP (10 ATP or 100 ATP, respectively), as indicated. Values expressed as percent control (% control) relative to DMSO-only wells (uninhibited, 100%).
(§3) Kinase activity was measured using either the Z’-Lyte® or the Adapta® protocols as part of the SelectScreen™ profiling service offered at Life Technologies (Grand Island, NY). […] Values expressed as percent control (% control) relative to DMSO-only wells (uninhibited, 100%).

SGK_h = target: T2, SGK_h (Homo sapiens, UniProt O00141); test: SelectScreen kinase assay; assay type: biochemical; conditions: KM ATP
T2 construct: purchased Life Technologies (Invitrogen) SelectScreen, Z'-LYTE / Adapta
Method: as §1, §2, §3

MAP3K8_h = target: T3, MAP3K8_h (Homo sapiens, UniProt P41279); test: SelectScreen kinase assay; assay type: biochemical; conditions: 100 µM ATP
T3 construct: purchased Life Technologies (Invitrogen) SelectScreen, Z'-LYTE / Adapta
Method: as §1, §2, §3

PKC-alpha_h = target: T4, PKC-alpha_h (Homo sapiens, UniProt P17252); test: SelectScreen kinase assay; assay type: biochemical; conditions: KM ATP
T4 construct: purchased Life Technologies (Invitrogen) SelectScreen, Z'-LYTE / Adapta
Method: as §1, §2, §3

PKC-betaI_h = target: T5, PKC-betaI_h (Homo sapiens, UniProt P05771); test: SelectScreen kinase assay; assay type: biochemical; conditions: KM ATP
T5 construct: purchased Life Technologies (Invitrogen) SelectScreen, Z'-LYTE / Adapta
Method: as §1, §2, §3

MH7A cells = test: MH7A synoviocytes, TNFα-induced IL-6 production; assay type: cell-based, human
Method: Cells were maintained in culture and assayed as described by supplier. Briefly, MH7A cells were seeded to 6000 cells/ well in 96 well plates 1 day prior to stimulation. Cells were pretreated with compounds for 30 minutes, stimulated with TNFα (2 ng/ml) or IL-1β (0.5 ng/ml) and placed in tissue culture incubator for 16 hours. Supernatants were collected and assayed for cytokines using the Mesoscale Proinflammatory Panel I or Proinflammatory 4-plex according to the manufacturer’s protocol (Mesoscale, Gaithersberg, MD).

[1] = test system: FcεR-dependent β-hexosaminidase release from LAD2 cells; test: LAD2 IgE-dependent beta-hexosaminidase release; assay type: cell-based, human
Method: Cells were cultured in StemPro-34 media (Life Technologies) with 100 ng/ml human SCF (GIBCO) and stimulated as described by supplier. Briefly, LAD2 cells were gently dislodged from culture flask, added to 96-well round bottom plates, and sensitized with 0.05 μg/ml final concentration of NP-IgE (AbD Serotec, Oxford, UK) for 16 hours in a standard tissue culture incubator at 37C with 5% CO2. Cells were washed once and equilibrated in Tyrode’s Buffer (Sigma Chemicals, St. Louis, MO) for 3 hours, preincubated with CC-509 for 30 minutes, and stimulated with 0.1 μg/ml NP16-BSA (Biosearch Technologies, Novato, CA) for 90 minutes. Beta-hexosaminidase activity was measured in supernatants and solubilized cell pellets using p-Nitrophenyl N-acetyl-β-D-Glucosaminide substrate (Sigma Chemicals, St. Louis, MO) to generate a colorimetric signal that was measured in a SpectraMax (Molecular Devices) spectrophotometer at 405 nm. Percent release (% release) was calculated as described in Data Analysis section.
For the TEL-Syk assay, the intensity values for the 700 and 800 channel were exported as text files in ActivityBase (IDBS, Guildford, UK) to derive the ratios that reflect kinase activity. For LAD2 experiments, enzyme activity values were exported as text files into ActivityBase to calculate “percent release” according to the formula: 100* supernatant OD405/ (supernatant OD405 + (pellet OD405*pellet dilution factor)). For the basophil and B-cells assays, flow cytometry data was exported from the FACS Array and processed using FloJo software package (TreeStar, Inc., Ashland, Oregon). For the JAK2 HEL and Ramos NFAT β-lactamase assays, the fluorescence values obtained at 460 nm and 530 nm were exported into ActivityBase to calculate response ratios. […] Evans blue dye extravasation was expressed as mean ± SEM and % inhibition for the test article groups was normalized to the cromolyn positive control. […] The mean data from each group was plotted and either the AUC(day 11–18) or % inhibition on day 18 was calculated. Data is expressed as mean ± SEM of each group with n = 6–12. […]

[2] = test system: BCR-dependent CD69 upregulation on primary human B-cells; test: primary human B-cell assay, anti-IgM stimulated CD69 upregulation; assay type: cell-based
Method: Buffy coat-derived purified B-cells were generated using the RosetteSep B-cell and Ficoll-Paque Plus reagents, as described in protocols provided by the suppliers. Purified B-cells were plated in 96-well U-bottom plates, preincubated with CC-509 at indicated concentrations for 30 minutes, and then stimulated with anti-IgM for 14 hours in a tissue culture incubator. Plates were washed once in FBS Stain Buffer and incubated with the anti-CD69 antibody in the dark for 30 minutes at room temperature. Plates were washed three times and analyzed by flow cytometry on the FACSArray Bioanalyzer. Standard gating methods were used to identify B-cells and to measure the mean intensity of CD69 fluorescence. FCS files were exported and analyzed as described in the Data Analysis section.
For the TEL-Syk assay, the intensity values for the 700 and 800 channel were exported as text files in ActivityBase (IDBS, Guildford, UK) to derive the ratios that reflect kinase activity. For LAD2 experiments, enzyme activity values were exported as text files into ActivityBase to calculate “percent release” according to the formula: 100* supernatant OD405/ (supernatant OD405 + (pellet OD405*pellet dilution factor)). For the basophil and B-cells assays, flow cytometry data was exported from the FACS Array and processed using FloJo software package (TreeStar, Inc., Ashland, Oregon). For the JAK2 HEL and Ramos NFAT β-lactamase assays, the fluorescence values obtained at 460 nm and 530 nm were exported into ActivityBase to calculate response ratios. For the neutrophil, macrophage, KDR, and JAK1/3 assays, raw values were exported into ActivityBase to calculate percent inhibition. All IC50 calculations were generated using XLfit (IDBS, Guildford, UK) algorithm 205 within Excel. […] Evans blue dye extravasation was expressed as mean ± SEM and % inhibition for the test article groups was normalized to the cromolyn positive control. […] The mean data from each group was plotted and either the AUC(day 11–18) or % inhibition on day 18 was calculated. Data is expressed as mean ± SEM of each group with n = 6–12. […]

T1 sequence (Q96RG2 whole entry): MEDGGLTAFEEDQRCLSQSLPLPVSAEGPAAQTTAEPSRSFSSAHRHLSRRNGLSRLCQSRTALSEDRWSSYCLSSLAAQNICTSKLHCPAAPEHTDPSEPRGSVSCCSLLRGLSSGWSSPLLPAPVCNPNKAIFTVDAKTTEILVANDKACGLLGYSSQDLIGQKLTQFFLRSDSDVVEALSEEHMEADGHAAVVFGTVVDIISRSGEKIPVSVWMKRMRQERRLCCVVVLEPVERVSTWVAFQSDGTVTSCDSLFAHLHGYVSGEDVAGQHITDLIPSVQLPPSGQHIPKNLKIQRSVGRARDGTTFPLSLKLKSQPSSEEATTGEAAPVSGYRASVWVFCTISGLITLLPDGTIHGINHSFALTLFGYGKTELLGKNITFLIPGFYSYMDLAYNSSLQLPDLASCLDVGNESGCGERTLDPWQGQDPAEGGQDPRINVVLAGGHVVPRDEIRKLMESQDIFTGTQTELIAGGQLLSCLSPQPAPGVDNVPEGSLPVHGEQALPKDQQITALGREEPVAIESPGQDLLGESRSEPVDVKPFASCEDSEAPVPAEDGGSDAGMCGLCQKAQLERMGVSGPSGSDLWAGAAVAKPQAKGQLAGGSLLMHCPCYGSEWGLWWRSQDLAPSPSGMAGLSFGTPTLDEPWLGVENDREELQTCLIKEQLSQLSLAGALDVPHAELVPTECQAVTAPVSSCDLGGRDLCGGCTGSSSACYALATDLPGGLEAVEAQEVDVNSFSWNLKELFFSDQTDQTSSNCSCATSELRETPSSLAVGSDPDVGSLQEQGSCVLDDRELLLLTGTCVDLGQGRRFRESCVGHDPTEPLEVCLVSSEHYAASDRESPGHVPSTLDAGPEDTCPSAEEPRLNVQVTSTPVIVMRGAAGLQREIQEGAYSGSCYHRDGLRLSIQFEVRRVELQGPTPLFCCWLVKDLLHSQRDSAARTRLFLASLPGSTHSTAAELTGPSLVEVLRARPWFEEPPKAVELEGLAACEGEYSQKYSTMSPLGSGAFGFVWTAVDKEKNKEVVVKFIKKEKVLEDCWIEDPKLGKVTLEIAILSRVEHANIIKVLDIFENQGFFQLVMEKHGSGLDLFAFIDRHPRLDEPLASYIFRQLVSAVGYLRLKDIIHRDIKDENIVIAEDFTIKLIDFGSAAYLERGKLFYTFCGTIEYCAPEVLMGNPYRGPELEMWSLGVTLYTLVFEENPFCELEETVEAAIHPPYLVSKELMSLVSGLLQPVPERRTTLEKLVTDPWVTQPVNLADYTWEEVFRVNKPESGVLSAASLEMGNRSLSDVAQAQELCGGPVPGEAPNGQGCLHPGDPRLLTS
T3 sequence (P41279 whole entry): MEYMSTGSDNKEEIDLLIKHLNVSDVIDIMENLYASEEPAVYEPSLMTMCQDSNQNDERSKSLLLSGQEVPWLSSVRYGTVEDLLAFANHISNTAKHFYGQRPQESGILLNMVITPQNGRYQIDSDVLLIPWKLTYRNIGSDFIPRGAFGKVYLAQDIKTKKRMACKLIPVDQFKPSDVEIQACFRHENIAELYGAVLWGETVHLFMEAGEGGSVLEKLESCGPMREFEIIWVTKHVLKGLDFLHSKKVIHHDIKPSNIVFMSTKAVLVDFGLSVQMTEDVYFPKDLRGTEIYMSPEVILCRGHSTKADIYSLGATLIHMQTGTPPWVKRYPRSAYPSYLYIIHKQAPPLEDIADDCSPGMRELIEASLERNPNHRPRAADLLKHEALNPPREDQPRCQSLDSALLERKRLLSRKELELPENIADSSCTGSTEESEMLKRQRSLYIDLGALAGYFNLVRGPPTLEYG
T5 sequence (P05771 whole entry): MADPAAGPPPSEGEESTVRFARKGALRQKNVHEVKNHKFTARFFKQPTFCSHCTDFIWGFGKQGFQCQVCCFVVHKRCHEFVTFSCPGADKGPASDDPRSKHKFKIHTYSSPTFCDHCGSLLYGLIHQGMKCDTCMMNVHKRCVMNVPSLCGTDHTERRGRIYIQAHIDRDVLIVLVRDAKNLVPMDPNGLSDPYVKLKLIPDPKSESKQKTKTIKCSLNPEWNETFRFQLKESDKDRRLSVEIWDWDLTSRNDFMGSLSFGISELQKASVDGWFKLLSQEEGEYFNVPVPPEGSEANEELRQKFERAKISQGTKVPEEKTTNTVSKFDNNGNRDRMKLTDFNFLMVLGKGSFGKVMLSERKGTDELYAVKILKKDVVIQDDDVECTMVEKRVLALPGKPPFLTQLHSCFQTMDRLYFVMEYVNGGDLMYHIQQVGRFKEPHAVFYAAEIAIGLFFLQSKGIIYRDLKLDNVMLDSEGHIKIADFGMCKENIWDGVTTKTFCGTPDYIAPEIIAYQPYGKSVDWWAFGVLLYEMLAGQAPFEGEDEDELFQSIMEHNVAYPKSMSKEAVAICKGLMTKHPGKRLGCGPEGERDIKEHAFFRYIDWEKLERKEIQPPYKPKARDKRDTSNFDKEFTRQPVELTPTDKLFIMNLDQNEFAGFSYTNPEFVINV
T2 sequence (O00141 whole entry): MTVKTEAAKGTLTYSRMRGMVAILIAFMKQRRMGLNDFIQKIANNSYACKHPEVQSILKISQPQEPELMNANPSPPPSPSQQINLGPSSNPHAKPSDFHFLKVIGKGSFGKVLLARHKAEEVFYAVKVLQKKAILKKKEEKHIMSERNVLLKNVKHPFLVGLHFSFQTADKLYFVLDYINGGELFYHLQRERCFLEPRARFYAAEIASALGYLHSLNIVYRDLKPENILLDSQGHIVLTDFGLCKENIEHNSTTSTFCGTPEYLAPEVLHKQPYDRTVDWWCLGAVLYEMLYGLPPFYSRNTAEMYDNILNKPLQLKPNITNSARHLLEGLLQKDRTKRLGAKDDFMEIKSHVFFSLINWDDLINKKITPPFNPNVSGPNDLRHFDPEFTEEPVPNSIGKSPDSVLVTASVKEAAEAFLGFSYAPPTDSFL

SMILES | remaining activity at 3 µM (PASK_h; read-out: % control) [%] | remaining activity at 3 µM (SGK_h; read-out: % control) [%] | remaining activity at 3 µM (MAP3K8_h; read-out: % control) [%] | remaining activity at 3 µM (PKC-alpha_h; read-out: % control) [%] | remaining activity at 3 µM (PKC-betaI_h; read-out: % control) [%] | IC50, TNFα-induced IL-6 production (MH7A cells) | IC50 ([1]; Homo sapiens, LAD2, mean ± SD, minimum n = 3, read-out: IC50, IgE-mediated β-hexosaminidase release) [nM] | IC50 ([1]; Homo sapiens, LAD2 FcεR, curve shown in figure, read-out: IC50 printed in Fig 3C panel) [nM] | IC50 ([2]; Homo sapiens, B-cell, B-cells BCR, curve shown in figure, read-out: IC50 printed in Fig 3B panel) [nM] | IC50 ([2]; Homo sapiens, B-cell, mean ± SD, minimum n = 3, read-out: IC50, BCR-dependent upregulation of cell surface CD69) [nM] | % control (PASK_h; 3 µM) [%] | % control (SGK_h; 3 µM) [%] | % control (MAP3K8_h; 3 µM) [%] | % control (PKC-alpha_h; 3 µM) [%] | % control (PKC-betaI_h; 3 µM) [%] | IC50 (MH7A cells) [nM] | IC50 ([1]; mean ± SD, minimum n = 3, read-out: IC50, IgE-mediated β-hexosaminidase release) [nM] | IC50 ([2]; mean ± SD, minimum n = 3, read-out: IC50, BCR-dependent upregulation of cell surface CD69) [nM]
c1cc(CC2CCOCC2)n2nc(Nc3ccc4c(NC5CCOCC5)n[nH]c4c3)nc2c1 [CC-509, [3-(2H-3,4,5,6-tetrahydropyran-4-ylamino)(1H-indazol-6-yl)][5-(2H-3,4,5,6-tetrahydropyran-4-ylmethyl)(2H-1,2,4-triazolo[1,5-a]pyridin-2-yl)]amine] | 100 | 96 | 79 | 71 | 92 | did not inhibit | 220 ± 130 | 330 | 570 | 510 ± 90 |  |  |  |  |  |  |  | 
COc1cc(Nc2ncc(F)c(Nc3ccc4c(n3)NC(=O)C(C)(C)O4)n2)cc(OC)c1OC [R406, reference compound] |  |  |  |  |  |  |  |  |  |  | 104 | 94 | 52 | 42 | 59 | 1040 ± 130 | 110 ± 70 | 400 ± 220
